System: U2OS cells
Experiment: Multicolor competition assay (MCA) of DNA damage sensitivity
Format: cell-based
Conditions: 7 days of culture, read-out: concentration resulting in about 50% survival of non-transfected cells
Description: U2OS cells were infected with MSCVgfp or MSCVdsRed, which were packaged in 293T by co-transfection with VSVG vector using TransIT-293 (Minis). Without selection, the cells were sorted using the Aria Sorter (BD) for intermediate expression. The gfp cells grew slightly faster than the rfp cells and this was taken into account when calculating the changes in survival due to treatment with DNA damaging agents. siRNA transfections were performed as described above with gfp cells being transfected with a control siRNA (luciferase) and rfp cells with an siRNA of interest. On the third day after transfections, gfp and rfp cells were counted and mixed in 1 to 1 ratio and were left untreated or were treated with IR or MMC. The concentration of Mitomycin C (Sigma) was chosen to result in about 50% survival of non-transfected cells, which was about 70 nM MMC for U2OS cells. After 7 days of culture, all cells were collected and analyzed using Cytomix FC500 Analyzer (Beckman Coulter). […]
Two populations of U20S (osteosarcoma) cells differing only in their color were created by expression of red fluorescent protein (RFP) or green fluorescent protein (GFP). siRNA depletion of the protein of interest was carried out in the […] were transfected with control siRNA. […] After 7 days, cells were harvested and a ratio of red to green cells was determined using flow cytometry. […]

For `CO[C@@]12[C@H](COC(N)=O)C3=C(C(=O)C(C)=C(N)C3=O)N1C[C@@H]1N[C@@H]12` [Mitomycin C], the IC50 was about 70 nM.

— US20130280258A1, “PROGNOSTIC, DIAGNOSTIC, AND CANCER THERAPEUTIC USES OF FANCI AND FANCI MODULATING AGENTS” (Miltenyi Biotec GmbH, priority 2007, published 2013)
